The assay has as its target human TRPV3 receptors (Homo sapiens (Human), UniProt Q8NET8). The assay can be described thus: Calcium flux assay (FLIPR TETRA), inhibition of the 2-APB response. In kind it is cell-based. Particulars: recombinant HEK293 cells stably expressing TRPV3, Calcium-4 dye, 2-APB at its EC80. The method in brief: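 Responses are given relative to the maximal 2-APB signal in the absence of compound, using peak fluorescence over baseline. Measured by FLIPR Tetra calcium flux in stable human and mouse TRPV3 HEK293 cells after 90-120 min dark dye incubation.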
Sequence of human TRPV3 receptors (Q8NET8 whole entry): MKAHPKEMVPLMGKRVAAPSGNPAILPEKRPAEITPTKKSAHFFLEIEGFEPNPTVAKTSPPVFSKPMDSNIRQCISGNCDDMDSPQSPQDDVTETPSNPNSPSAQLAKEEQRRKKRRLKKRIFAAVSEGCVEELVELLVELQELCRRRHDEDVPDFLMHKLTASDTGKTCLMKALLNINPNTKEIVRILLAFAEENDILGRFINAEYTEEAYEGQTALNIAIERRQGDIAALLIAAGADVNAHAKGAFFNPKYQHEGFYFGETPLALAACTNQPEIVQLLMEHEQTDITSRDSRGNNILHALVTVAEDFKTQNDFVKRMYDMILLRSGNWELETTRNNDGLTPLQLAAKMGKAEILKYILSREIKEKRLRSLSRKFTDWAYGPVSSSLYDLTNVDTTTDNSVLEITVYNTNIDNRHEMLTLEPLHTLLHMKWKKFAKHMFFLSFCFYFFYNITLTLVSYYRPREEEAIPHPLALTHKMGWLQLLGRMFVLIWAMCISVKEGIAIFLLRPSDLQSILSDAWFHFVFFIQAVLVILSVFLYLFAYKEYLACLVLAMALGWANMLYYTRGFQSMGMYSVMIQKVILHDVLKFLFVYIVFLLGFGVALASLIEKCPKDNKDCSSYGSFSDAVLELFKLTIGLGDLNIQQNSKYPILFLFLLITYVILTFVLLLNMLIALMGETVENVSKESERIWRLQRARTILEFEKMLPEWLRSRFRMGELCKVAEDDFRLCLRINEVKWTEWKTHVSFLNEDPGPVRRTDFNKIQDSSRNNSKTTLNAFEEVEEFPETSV
One may read the IC50 as the concentration that inhibits the measured activity by half. As for `CC(C)[C@H](CO)NCc1nc(-c2cnc(N(C)C)nc2)ccc1F` [Example 261, (2R)-2-[({6-[2-(dimethylamino)pyrimidin-5-yl]-3-fluoropyridin-2-yl}methyl)amino]-3-methylbutan-1-ol], the IC50 came to 750 nM.
Turning to `CCCCOc1ccc(-c2cccc(CN[C@@H](CO)C(C)C)n2)cc1Cl` [Example 262, (2R)-2-({[6-(4-butoxy-3-chlorophenyl)pyridin-2-yl]methyl}amino)-3-methylbutan-1-ol], the IC50 was determined as 810 nM.
The same measure for `CC(C)[C@H](CO)NCc1cccc(C#Cc2ccc(S(F)(F)(F)(F)F)cc2)n1` [Example 263, (2R)-3-methyl-2-{[(6-{[4-(pentafluoro-λ^6-sulfanyl)phenyl]ethynyl}pyridin-2-yl)methyl]amino}butan-1-ol]: 230 nM; for `CC(C)[C@H](CO)NCc1cccc(C#Cc2ccc(F)cc2)n1` [Example 264, (2R)-2-[({6-[(4-fluorophenyl)ethynyl]pyridin-2-yl}methyl)amino]-3-methylbutan-1-ol]: 170 nM; for `CC(C)[C@H](CO)NCc1cccc(C#Cc2ccc(F)c(F)c2)n1` [Example 265, (2R)-2-[({6-[(3,4-difluorophenyl)ethynyl]pyridin-2-yl}methyl)amino]-3-methylbutan-1-ol]: 190 nM.
The value for `OCC1(NCc2cccc(-c3ccc(F)c(Cl)c3)n2)CCCC1` [Example 266, [1-({[6-(3-chloro-4-fluorophenyl)pyridin-2-yl]methyl}amino)cyclopentyl]methanol] was 390 nM; that for `CC(C)[C@H](CO)NCc1cccc(-c2ccc(F)c(C(F)(F)F)c2)n1` [Example 267, (2R)-2-[({6-[4-fluoro-3-(trifluoromethyl)phenyl]pyridin-2-yl}methyl)amino]-3-methylbutan-1-ol] was 180 nM; that for `OCC1(NCc2cccc(-c3ccc(F)c(C(F)(F)F)c3)n2)CCCC1` [Example 268, {1-[({6-[4-fluoro-3-(trifluoromethyl)phenyl]pyridin-2-yl}methyl)amino]cyclopentyl}methanol] was 420 nM.
The value for `CC(C)[C@H](CO)NCc1cccc(-c2ccc(F)c(C#N)c2)n1` [Example 269, 2-fluoro-5-[6-({[(2R)-1-hydroxy-3-methylbutan-2-yl]amino}methyl)pyridin-2-yl]benzonitrile] was 440 nM; that for `CC(C)[C@H](CO)NCc1cccc(-c2ccc(C(F)(F)F)cc2C(F)(F)F)n1` [Example 270, (2R)-2-[({6-[2,4-bis(trifluoromethyl)phenyl]pyridin-2-yl}methyl)amino]-3-methylbutan-1-ol] was 550 nM; that for `OCC1(NCc2cccc(-c3ccc(C(F)(F)F)cc3C(F)(F)F)n2)CCCC1` [Example 271, {1-[({6-[2,4-bis(trifluoromethyl)phenyl]pyridin-2-yl}methyl)amino]cyclopentyl}methano 1] was 580 nM.
As for `OCC1(NCc2cccc(-c3cc(C(F)(F)F)cc(C(F)(F)F)c3)n2)CCCC1` [Example 272, {1-[({6-[3,5-bis(trifluoromethyl)phenyl]pyridin-2-yl}methyl)amino]cyclopentyl}methano 1], the IC50 was found to be 220 nM.
The value for `CC(C)[C@H](CO)NCc1nc(-c2cc3ccccc3n2C(=O)OC(C)(C)C)ccc1F` [Example 273, tert-butyl 2-[5-fluoro-6-({[(2R)-1-hydroxy-3-methylbutan-2-yl]amino}methyl)pyridin-2-yl]-1H-indole-1-carboxylate] was 120 nM; that for `CC(C)[C@H](CO)NCc1nc(-c2cc3ccccc3[nH]2)ccc1F` [Example 274, (2R)-2-({[3-fluoro-6-(1H-indol-2-yl)pyridin-2-yl]methyl}amino)-3-methylbutan-1-ol] was 260 nM; that for `CC1CCN(C(=O)c2ccc(-c3ccc(F)c(CN[C@@H](CO)C(C)C)n3)cc2)CC1` [Example 275, {4-[5-fluoro-6-({[(2R)-1-hydroxy-3-methylbutan-2-yl]amino}methyl)pyridin-2-yl]phenyl}(4-methylpiperidin-1-yl)methanone] was 1330 nM.

The values are drawn from US9012651B2, “TRPV3 modulators” (AbbVie Inc., priority 2011, dated 2015).
